Assays:
[1] = system: transgenic littermates overexpressing IFN-γ and/or SOCS1; test: IFN-γ-overexpressing mice crossed to PLP/SOCS1 mice, clinical and histological evaluation at postnatal day 21; type: in vivo; details: for oligodendrocyte density: corpus callosum, postnatal day 21; for G ratio (axon diameter/fiber diameter ratio): hypomyelination defined as G ratio>0.8
Description: The transgenic mice MBP/IFN-γ and GFAP/tTA×TRE/IFN-γ (lines 184/110 and 184/67) that overexpress IFN-γ in the CNS have been described elsewhere (Corbin et al., 1996; Gao et al., 2000; Lin et al., 2004, 2005). Briefly, MBP/IFN-γ mice are transgenic animals in which IFN-γ expression is driven by the myelin basic protein (MBP) transcriptional control region (Gao et al., 2000). GFAP/tTA×TRE/IFN-γ are double-transgenic mice obtained by mating single-transgenic GFAP/tTA to single-transgenic TRE/IFN-γ (lines 110 and 67) mice. The two TRE/IFN-γ mouse lines, line 110 and line 67, used in the experiments produce different amounts of IFN-γ when crossed to GFA/tTA mice (184/110 and 184/67) (Lin e al., 2004, 2005). GFAP/tTA×TRE/IFN-γ is a tetracycline-off-inducible system in which the glial fibrilary acidic protein (GFAP) transcriptional control region drives the expression of tTA, which in turn, binds to the TRE (tet responsive element) and initiates the expression of IFN-γ. Administration of doxycycline suppresses tTA DNA binding and IFN-γ expression, and doxycycline removal allows for temporally-controlled induction of IFN-γ expression (Gao et al., 1999).
IFN-γ-overexpressing mice were crossed to the PLP/SOCS1 mice in double-transgenic, (MBP/IFN-γ×PLP/SOCS1) and triple-transgenic (GFAP/tTA×TRE/IFN-γ×PLP/SOCS1) mating systems. MBP/IFN-γ×PLP/SOCS1 (172×PLP/SOCS1) mating was performed according to a standard mating protocol. The GFAP/tTA×TRE/IFN-γ×PLP/SOCS1 matings were performed in a 2-step mating process: GFAP/tTA mice were initially crossed to PLP/SOCS1 mice, and double-positive (184×PLP/SOCS1) offspring were then crossed to the TRE/IFN-γ lines 110 and 67, separately. This second mating step was performed according to the previously described “tet-off” protocol. Doxycycline 0.05 mg/ml (Sigma-Aldich) was added to the water of impregnated female mice until embryonic day 14, after which the animals were switched back to normal water, thereby allowing initiation of IFN-γ transcription, which peaks during the postnatal period (Lin et al., 2005).
The litters of the mating systems (F1 generation) were examined daily and sacrificed at postnatal day 21. Clinical evaluation included behavioral observation and challenged ladder walking to elicit tremor. Histological examination included quantitation of the number and density of oligodendrocytes and examination of the myelination patterns. Brain tissue was simultaneously obtained from each animal at the time of sacrifice to verify and measure the expression of IFN-γ and Flag-SOCS1 (see below). The clinical and histological findings were subsequently stratified according to genotype. All animal procedures were conducted in compliance with the National Institutes of Health Guide for Care and Use of Laboratory Animals and were approved by the Institutional Animal Care and Use Committee at The University of Chicago.
Oligodendrocyte cell density was assessed digitally using Axiovision software, at postnatal day 21, as previously described (Lin et al., 2005). The brains were sectioned sagittally through the corpus callosum dividing the brain in two symmetrical halves. Ten frozen sections from each half were prepared at 7 μm thickness, and numbered in the sequence of their preparation. The brains of three animals per study group were prepared in this fashion. Following the CC1 immunostaining the corresponding area of corpus callosum of each section was digitally selected and the corresponding total area obtained. CC1 cell counting was performed manually within the selected areas of each section, and the number of CC1 positive cells per square area (mm^2) calculated. The results were presented as mean±SD of CC1 (+) cells/mm^2 with n=3 animals per study group. […]

mice with EAE = test: EAE, CNS delivery of INF-γ at the recovery stage (doxycycline withdrawn at PID7); type: in vivo
Description: Double transgenic mice that allow for temporally regulated delivery of INF-γ to the CNS (Lin et al., J Neurosci 24:10074-10083 (2004)) were used to assess the role of INF-γ in the pathogenesis of EAE. GFAP/tTA; TRE/IFN-γ double transgenic mice, as described in Example 1 were used to determine the effect of INF-γ on the demyelination caused by EAE. All mice were fed doxycycline from the day of conception to repress the expression of INF-γ, and were immunized with myelin oligodendrocyte protein (MOG35-55) to induce EAE. At day 7 postimmunization (PID7), doxycycline was withdrawn from the experimental group (PID7 DOX−).
The level of INF-γ was determined in the control (DOX+) and the PID7 DOX− mice using an ELISA immunoassay as described in Example 1, and the severity of the disease was assessed as a function of a clinical score. Clinical severity scores were recorded daily according to a 0-5 point scale, where 0=healthy, 1=flaccid tail, 2=ataxia and/or paresis of hind limbs, 3=paralysis of hind limbs and/or paresis of forelimbs, 4=tetraparalysis, and 5=moribund or dead.
The spinal cord from DOX+ and DOX− animals with EAE was immunostained for MBP, and the remyelination of axons was evaluated. The number of oligodendrocytes was determined in the spine from DOX+ and DOX− mice as the number of CC1 positive cells. Axonal damage was evaluated by immunostaining of non-phosphorylated neurofilament-H. Antibodies to non-phosphorylated neurofilament-H were SMI32 diluted to 1:1000 and obtained from Stemberger Monoclonals.
INF-γ is known to induce MHC antigens and activate macrophages and T lymphocytes. The inflammatory effect of INF-γ was studied in the CNS during remyelination by determining the infiltration of T cells and macrophages, and measuring the expression of MHC-1, TNF-a, IL-2, IL-12 and IL-17. Immunohistochemistry was performed in tissues from the DOX+ and DOX− mice with EAE as described in Example 4. Experimental procedures were followed as described in the examples above.

[2] = spinal cord, DOX− compared to DOX+, PID50

Substance: interferon-γ [IFN-γ]
- Incidence of tremor ([1]; 172 × PLP/SOCS1 mating system, ten mice per group): 0%
- oligodendrocytes lost ([1]; 184/67 × PLP/SOCS1 system): approximately 40%
- percentage of unmyelinated axons ([1]; 184/67 × PLP/SOCS1 system): 57%±7
- oligodendrocyte density ([1]; 184/67 × PLP/SOCS1 system): 79±9 CC1 (+) cells/mm^2
- G ratio (axon diameter/fiber diameter ratio) ([1]; 184/67 × PLP/SOCS1 system): 0.95±0.04
- oligodendrocytes lost ([1]; 184/110 × PLP/SOCS1 system): approximately 20%
- percentage of unmyelinated axons ([1]; 184/110 × PLP/SOCS1 system): 41%±6
- oligodendrocyte density ([1]; 184/110 × PLP/SOCS1 system): 115±8 CC1 (+) cells/mm^2
- G ratio (axon diameter/fiber diameter ratio) ([1]; 184/110 × PLP/SOCS1 system): 0.89±0.02
- number of CC1 positive oligodendrocytes (mice with EAE; DOX− animals, lumbar spinal cord, PID50): significantly decreased
- mice that developed hind limb paralysis (mice with EAE; DOX− mice, PID17): 24 of 30
- mean maximum clinical score (mice with EAE; DOX− mice, PID17, 0-5 point scale): 2.69±0.69
- clinical score (mice with EAE; DOX− mice, PID50): ~2
- mice with hind limb paralysis that continued to suffer from the paralysis (mice with EAE; DOX− mice, PID50): 12/24
- axonal damage (non-phosphorylated neurofilament-H immunostaining) (mice with EAE; DOX− vs DOX+ mice): not affected
- number of infiltrating T cells and macrophages in the lumbar spinal cord (CD3, CD11b) (mice with EAE; DOX− vs DOX+ mice): did not increase significantly
- expression of IL-17 (mice with EAE; [2]): decrease
- expression of iNOs and IL-23 (mice with EAE; [2]): did not alter
- expression of MHC-1, TNF-a, IL2 and IL-12 (mice with EAE; spinal cord, DOX− compared to DOX+, PID50, real time PCR): increased

From patent US8309790B2, “Animal models for demyelination disorders” (University of Chicago, priority 2005, dated 2012)
